Test results published in paper PMC6679423 (International Journal of Molecular Sciences, 2019).

Key:
Type in all cases: in vitro ADME
human recombinant CYP3A4 = biological target: T1, human recombinant CYP3A4 (Homo sapiens, UniProt P08684); assay: Vandetanib oxidation by human recombinant CYP3A4 (Supersomes)
T1 construct: purchased Gentest Corp; host or cells: insect cells (baculovirus)
Protocol: The purity of all chemicals met the standards of American Chemical Society, unless noted otherwise. […] Animals were placed in cages in temperature- and humidity-controlled rooms, acclimatized for five days and maintained at 22 °C with a 12 h light/dark period. Standardized diet and water were provided ad libitum. Rats, mice and rabbits used to prepare microsomal fraction from untreated animals were sacrificed by cervical dislocation, livers snap-frozen in liquid nitrogen and stored at −80 °C until further processing (see below). For controls, livers of the animals were removed immediately after sacrifice, divided into small pieces (~1 g), snap-frozen in liquid nitrogen, and stored at −80 °C until isolation of microsomal fractions. Pooled microsomes were used for all in vitro experiments in the present study and prepared from 10 livers/group for all animal species following established protocols. Microsomal fractions were stored at −80 °C until analysis. Protein concentrations in the microsomal fractions were assessed using the bicinchoninic acid protein assay with bovine serum albumin as a standard. […] Microsomes from livers of twelve human donors were obtained from Gentest Corp. (Woburn, MA, USA) (cat. no. HG43–1, HG103, HG74, HG93, HG24, HG27, HG23, HG32, HK31, HK34, HG03, and HG42). […]

human recombinant CYP3A5 = assay: Vandetanib oxidation by human recombinant CYP3A5 (Supersomes)
Protocol: Vandetanib was from LC Laboratories (Woburn, MA, USA). Ketoconazole, NADPH, methimazol and other chemicals were all purchased from Sigma-Aldrich (St. Louis, MO, USA). The purity of all chemicals met the standards of American Chemical Society, unless noted otherwise. All animal experiments were conducted in accordance with the Regulations for the Care and Use of Laboratory Animals (311/1997, Ministry of Agriculture, Czech Republic), which follows the Declaration of Helsinki. Male Wistar rats (~125–150 g; AnLab, Czech Republic), male C57BL/6 mice ([…]; CXR Bioscience Ltd., Dundee, UK), and male New Zealand rabbits (2.5–3 kg; AnLab, Czech Republic) were employed as animal models. Animals were placed in cages in temperature- and humidity-controlled rooms, acclimatized for five days and maintained at 22 °C with a 12 h light/dark period. Standardized diet and water were provided ad libitum. Rats, mice and rabbits used to prepare microsomal fraction from untreated animals were sacrificed by cervical dislocation, livers snap-frozen in liquid nitrogen and stored at −80 °C until further processing (see below). […] Protein concentrations in the microsomal fractions were assessed using the bicinchoninic acid protein assay with bovine serum albumin as a standard. […]

CYP2D6, 3A5, 1A1 and 2C8 = assay: Contributions of other CYPs to N-desmethylvandetanib formation in human livers; settings: with cytochrome b5
Protocol: The contributions of these enzymes were calculated by relative activity factor because the activities of CYPs in Supersomes™ also need to be considered in addition to the relative contents of CYPs in the livers. […] Of CYPs in human liver, CYP3A4 is the major enzyme present in this human organ (~30% of the CYP hepatic complement), followed by CYP2C9 and 1A2 (~15% and ~13%, respectively), while CYP2C19, 2E1 2A6, 2D6, 2C8 and 3A5 are present in human liver at levels that range from ~2.5% to ~8.5% (see Reference for an overview).

[1] = without consideration of cytochrome b5

T1 sequence (P08684 2-503 limits assumed): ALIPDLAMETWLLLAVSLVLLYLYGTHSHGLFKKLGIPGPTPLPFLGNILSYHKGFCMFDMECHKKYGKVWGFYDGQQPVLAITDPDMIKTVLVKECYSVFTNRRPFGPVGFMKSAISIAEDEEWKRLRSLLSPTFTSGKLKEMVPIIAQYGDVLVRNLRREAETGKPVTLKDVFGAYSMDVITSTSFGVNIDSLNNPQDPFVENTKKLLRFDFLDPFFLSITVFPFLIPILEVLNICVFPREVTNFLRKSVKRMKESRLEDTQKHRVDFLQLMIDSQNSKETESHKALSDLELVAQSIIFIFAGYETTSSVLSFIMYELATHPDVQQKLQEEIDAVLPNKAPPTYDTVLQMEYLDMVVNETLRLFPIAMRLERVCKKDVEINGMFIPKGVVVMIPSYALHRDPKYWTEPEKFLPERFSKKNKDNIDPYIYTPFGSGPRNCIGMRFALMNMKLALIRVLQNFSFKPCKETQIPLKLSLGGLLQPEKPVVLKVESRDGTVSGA

COc1cc2c(Nc3ccc(Br)cc3F)ncnc2cc1OCC1CCNCC1 [N-desmethylvandetanib]
contribution of CYP3A4 to N-desmethylvandetanib formation in human liver (human recombinant CYP3A4; with cytochrome b5): ~ 99.6%
contribution of CYP3A4 to N-desmethylvandetanib formation in human liver (human recombinant CYP3A4; [1]): ~ 97.7%
fold increase of N-desmethylvandetanib formation by cytochrome b5 (human recombinant CYP3A5; CYP3A5 with vs without cytochrome b5): 7 fold
contribution of CYP3A5 to N-desmethylvandetanib formation in human liver (human recombinant CYP3A5; [1]): < 0.3%
contribution in total of other human CYPs (CYP2D6, 3A5, 1A1 and 2C8) to N-desmethylvandetanib formation (CYP2D6, 3A5, 1A1 and 2C8): ~ 0.4%
